Where two headings read alike, the source gives them in different places.
Tested on: PBMC from 30 HC individuals
Assay: ex vivo IFNγ ELISPOT with NTM-specific peptides
Assay type: cell-based, human
[1] = response frequency among HC donors, NTM-specific peptides (Table 2)
[2] = total spot forming cells, IFNγ ELISPOT, NTM-specific peptides (Table 2)

Substance: KDVFFYEPIILPEKS [Peptide 752]
- Resp Freq: 3%
- Total SFC: 78 SFC
- Resp Freq [1]: 3%
- Total SFC [2]: 78 SFC

Substance: 1474 (MFETMAAFMLVEHAN) [Peptide 1474]
- Resp Freq [1]: 3%
- Total SFC [2]: 23 SFC

Substance: 1141 (HAEYKQVTVLFADVV) [Peptide 1141]
- Resp Freq [1]: 3%
- Total SFC [2]: 38 SFC

Substance: KWETFLTQELPAYLA [Peptide 741]
- Resp Freq: 13%
- Total SFC: 248 SFC
- Resp Freq [1]: 13%
- Total SFC [2]: 248 SFC

Substance: 400 (MKELLAENLMVMMRD) [Peptide 400]
- Resp Freq [1]: 3%
- Total SFC [2]: 32 SFC

Substance: 1549 (RILQVFTEAYADVER) [Peptide 1549]
- Resp Freq [1]: 3%
- Total SFC [2]: 48 SFC

Substance: 439 (GMVFQSFNLFAHKTI) [Peptide 439]
- Resp Freq [1]: 3%
- Total SFC [2]: 28 SFC

Substance: 841 (PQFLIMPKLIPALIA) [Peptide 841]
- Resp Freq [1]: 3%
- Total SFC [2]: 48 SFC

Substance: 883 (EWFARILFSLFSTPS) [Peptide 883]
- Resp Freq [1]: 3%
- Total SFC [2]: 28 SFC

Substance: 629 (VQFMPLVIAPQLLLC) [Peptide 629]
- Resp Freq [1]: 3%
- Total SFC [2]: 37 SFC

Substance: 397 (ALMNQFISLLKASSL) [Peptide 397]
- Resp Freq [1]: 3%
- Total SFC [2]: 40 SFC

Substance: 447 (DDRRTLLWLANQRAV) [Peptide 447]
- Resp Freq [1]: 3%
- Total SFC [2]: 53 SFC

Substance: 645 (PASILILFAPGAPRE) [Peptide 645]
- Resp Freq [1]: 3%
- Total SFC [2]: 23 SFC

Substance: 417 (GVVAAIIAYNYPNQL) [Peptide 417]
- Resp Freq [1]: 3%
- Total SFC [2]: 28 SFC

Substance: 88 (ALVLVSLLTALAAGI) [Peptide 88]
- Resp Freq [1]: 3%
- Total SFC [2]: 28 SFC

Substance: PKLKQFMSDVVWIEH [Peptide 775]
- Resp Freq: 7%
- Total SFC: 70 SFC
- Resp Freq [1]: 7%
- Total SFC [2]: 70 SFC

Substance: 963 (VLVVFLLPALRDGAP) [Peptide 963]
- Resp Freq [1]: 3%
- Total SFC [2]: 25 SFC

Substance: 659 (GLLYVPQLATISATF) [Peptide 659]
- Resp Freq [1]: 3%
- Total SFC [2]: 38 SFC

Substance: 47 (VEFFRAVPVLIMMIF) [Peptide 47]
- Resp Freq [1]: 3%
- Total SFC [2]: 40 SFC

Substance: 626 (ARAGFAASGVLHLLV) [Peptide 626]
- Resp Freq [1]: 3%
- Total SFC [2]: 48 SFC

Substance: 537 (VEPVDISNAVLFLAS) [Peptide 537]
- Resp Freq [1]: 3%
- Total SFC [2]: 43 SFC

Substance: 323 (MIEMLAMSDLSLMVK) [Peptide 323]
- Resp Freq [1]: 3%
- Total SFC [2]: 38 SFC

Substance: 718 (LGPTAGLTVASALLV) [Peptide 718]
- Resp Freq [1]: 3%
- Total SFC [2]: 28 SFC

Substance: 713 (EGELHLFTPEVVFLL) [Peptide 713]
- Resp Freq [1]: 3%
- Total SFC [2]: 30 SFC

Substance: 1284 (NAVLFLASDEARYIT) [Peptide 1284]
- Resp Freq [1]: 3%
- Total SFC [2]: 25 SFC

Substance: 1075 (SPEQAYLLLGAAPIE) [Peptide 1075]
- Resp Freq [1]: 3%
- Total SFC [2]: 22 SFC

Substance: YNVVIYPVTTLRLAM [Peptide 1556]
- Resp Freq: 3%
- Total SFC: 122 SFC
- Resp Freq [1]: 3%
- Total SFC [2]: 122 SFC

Substance: 691 (LANPGIVSIPLAFIL) [Peptide 691]
- Resp Freq [1]: 3%
- Total SFC [2]: 23 SFC

Substance: 628 (LGVFPLIVMFLITSI) [Peptide 628]
- Resp Freq [1]: 3%
- Total SFC [2]: 53 SFC

Substance: 1525 (FFHRGLMLMSFDEHL) [Peptide 1525]
- Resp Freq [1]: 3%
- Total SFC [2]: 25 SFC

Substance: 804 (NSSIVLISLPAIFRG) [Peptide 804]
- Resp Freq [1]: 3%
- Total SFC [2]: 57 SFC

Substance: 1393 (ANVRYISGAPQLWVV) [Peptide 1393]
- Resp Freq [1]: 3%
- Total SFC [2]: 42 SFC

Substance: 1331 (VEAGMVYVTLPPLFV) [Peptide 1331]
- Resp Freq [1]: 3%
- Total SFC [2]: 58 SFC

Substance: 543 (VIMPWMIFYQQGAVV) [Peptide 543]
- Resp Freq [1]: 3%
- Total SFC [2]: 43 SFC

Substance: 175 (LDYFLNLMLRAPFRL) [Peptide 175]
- Resp Freq [1]: 3%
- Total SFC [2]: 32 SFC

Substance: 672 (ASGTLLFKLTPWIVV) [Peptide 672]
- Resp Freq [1]: 3%
- Total SFC [2]: 25 SFC

Substance: 697 (RSLMFPTLASLIEER) [Peptide 697]
- Resp Freq [1]: 3%
- Total SFC [2]: 25 SFC

Substance: 1458 (HFVSTLSATFPEGED) [Peptide 1458]
- Resp Freq [1]: 3%
- Total SFC [2]: 47 SFC

Substance: 531 (LDSFQLFPNFVILFW) [Peptide 531]
- Resp Freq [1]: 3%
- Total SFC [2]: 28 SFC

Substance: 712 (VVLMIFRPQGLFPAR) [Peptide 712]
- Resp Freq [1]: 3%
- Total SFC [2]: 27 SFC

Substance: HQGLAFLLADMAAAV [Peptide 8]
- Resp Freq: 3%
- Total SFC: 58 SFC
- Resp Freq [1]: 3%
- Total SFC [2]: 58 SFC

Substance: 586 (ELVWLGAAMIIGAGS) [Peptide 586]
- Resp Freq [1]: 3%
- Total SFC [2]: 37 SFC

Substance: 732 (PLRVAFLIVLIGTTV) [Peptide 732]
- Resp Freq [1]: 3%
- Total SFC [2]: 33 SFC

Substance: 1255 (GNELWQIALLELWLQ) [Peptide 1255]
- Resp Freq [1]: 3%
- Total SFC [2]: 37 SFC

Substance: 538 (VEVVSAEALQLPLWG) [Peptide 538]
- Resp Freq [1]: 3%
- Total SFC [2]: 30 SFC

Substance: 1001 (KGGLRFHPSVYLGIV) [Peptide 1001]
- Resp Freq [1]: 3%
- Total SFC [2]: 37 SFC

Substance: LGVAALLFGFPIFFD [Peptide 391]
- Resp Freq: 3%
- Total SFC: 77 SFC
- Resp Freq [1]: 3%
- Total SFC [2]: 77 SFC

Substance: 1350 (LFFLFPLYAMADFST) [Peptide 1350]
- Resp Freq [1]: 3%
- Total SFC [2]: 30 SFC

Substance: 714 (AFTHFALLANVAEDI) [Peptide 714]
- Resp Freq [1]: 3%
- Total SFC [2]: 35 SFC

Substance: 387 (RGQFWIWAGANIAPI) [Peptide 387]
- Resp Freq [1]: 3%
- Total SFC [2]: 47 SFC

Substance: 1244 (LIFDGVFDRFPTLRI) [Peptide 1244]
- Resp Freq [1]: 3%
- Total SFC [2]: 35 SFC

Substance: 281 (IVAHYILQYATEELR) [Peptide 281]
- Resp Freq [1]: 3%
- Total SFC [2]: 25 SFC

Substance: GSMLWVAALIGEEIF [Peptide 587]
- Resp Freq: 7%
- Total SFC: 68 SFC
- Resp Freq [1]: 7%
- Total SFC [2]: 68 SFC

Substance: 438 (GSVLLVQALLVTSLL) [Peptide 438]
- Resp Freq [1]: 3%
- Total SFC [2]: 25 SFC

Substance: 205 (TTSLAFLVAFRPGLV) [Peptide 205]
- Resp Freq [1]: 3%
- Total SFC [2]: 45 SFC

Substance: 106 (GLSSAWLSLIFAEMI) [Peptide 106]
- Resp Freq [1]: 3%
- Total SFC [2]: 55 SFC

Substance: RFTLLRPLLFTIAYE [Peptide 311]
- Resp Freq: 3%
- Total SFC: 477 SFC
- Resp Freq [1]: 3%
- Total SFC [2]: 477 SFC

Substance: 588 (HLFQVMAFVVMEPPT) [Peptide 588]
- Resp Freq [1]: 3%
- Total SFC [2]: 52 SFC

Substance: 1072 (HIELALYRIAQECLQ) [Peptide 1072]
- Resp Freq [1]: 3%
- Total SFC [2]: 37 SFC

Substance: LMVLFQYGVALHELE [Peptide 7]
- Resp Freq: 3%
- Total SFC: 138 SFC
- Resp Freq [1]: 3%
- Total SFC [2]: 138 SFC

Substance: 760 (AEWVVRTILSLLTVR) [Peptide 760]
- Resp Freq [1]: 3%
- Total SFC [2]: 38 SFC

Substance: 1077 (GFVTEFLQREVQNFL) [Peptide 1077]
- Resp Freq [1]: 3%
- Total SFC [2]: 22 SFC

Substance: 787 (DVDIDQLRSFLADKV) [Peptide 787]
- Resp Freq [1]: 3%
- Total SFC [2]: 38 SFC

Substance: 1204 (TPGLNLVYAHLNRII) [Peptide 1204]
- Resp Freq [1]: 3%
- Total SFC [2]: 30 SFC

Substance: 651 (FSWFAAGMVLAELTV) [Peptide 651]
- Resp Freq [1]: 3%
- Total SFC [2]: 22 SFC

Substance: 1542 (GRVAWNIVTSYLDSA) [Peptide 1542]
- Resp Freq [1]: 3%
- Total SFC [2]: 52 SFC

Substance: 540 (VVYAFMSLFVVNVVV) [Peptide 540]
- Resp Freq [1]: 3%
- Total SFC [2]: 25 SFC

Substance: PLAENYLRLNALGAY [Peptide 1364]
- Resp Freq: 3%
- Total SFC: 228 SFC
- Resp Freq [1]: 3%
- Total SFC [2]: 228 SFC

Substance: 865 (TPLFMAHYAPFGLLT) [Peptide 865]
- Resp Freq [1]: 3%
- Total SFC [2]: 25 SFC

Substance: ETTRNLIALGTLALI [Peptide 829]
- Resp Freq: 3%
- Total SFC: 93 SFC
- Resp Freq [1]: 3%
- Total SFC [2]: 93 SFC

Substance: 1526 (VATVRAASSLVRAPL) [Peptide 1526]
- Resp Freq [1]: 3%
- Total SFC [2]: 27 SFC

Substance: 1196 (MVWRAAAAIELGICD) [Peptide 1196]
- Resp Freq [1]: 3%
- Total SFC [2]: 35 SFC

Substance: 1529 (EGIVFALGGALDFSY) [Peptide 1529]
- Resp Freq [1]: 3%
- Total SFC [2]: 23 SFC

Substance: GRLIGWLAKVLAEHP [Peptide 1258]
- Resp Freq: 3%
- Total SFC: 60 SFC
- Resp Freq [1]: 3%
- Total SFC [2]: 60 SFC

Substance: SLHMFFHRLGPVLAR [Peptide 329]
- Resp Freq: 7%
- Total SFC: 167 SFC
- Resp Freq [1]: 7%
- Total SFC [2]: 167 SFC

Substance: 257 (FFHIYGMTVLLNAAL) [Peptide 257]
- Resp Freq [1]: 3%
- Total SFC [2]: 35 SFC

Substance: 1571 (ADGLVLFNRFLQPDI) [Peptide 1571]
- Resp Freq [1]: 3%
- Total SFC [2]: 48 SFC

Substance: 1452 (TTPHFLVEGAIIAAY) [Peptide 1452]
- Resp Freq [1]: 3%
- Total SFC [2]: 43 SFC

Substance: 405 (PLVYFIDSMLQVDDL) [Peptide 405]
- Resp Freq [1]: 3%
- Total SFC [2]: 33 SFC

Substance: ALLYIPLLTRMLMNL [Peptide 777]
- Resp Freq: 7%
- Total SFC: 87 SFC
- Resp Freq [1]: 7%
- Total SFC [2]: 87 SFC

Substance: RLFPVIRRYALAYHV [Peptide 582]
- Resp Freq: 10%
- Total SFC: 158 SFC
- Resp Freq [1]: 10%
- Total SFC [2]: 158 SFC

Substance: 1218 (RTFFRYFPTKESVLF) [Peptide 1218]
- Resp Freq [1]: 3%
- Total SFC [2]: 48 SFC

Substance: 78 (IVGAALFLASDASSF) [Peptide 78]
- Resp Freq [1]: 3%
- Total SFC [2]: 32 SFC
